{"source": "paper PMC7367283", "about": "“A PIP2 substitute mediates voltage sensor-pore coupling in KCNQ activation” (Communications Biology, 2020)", "molecular_target": "T1, IKs current (Chromanol 293B sensitive current) (Cavia porcellus, UniProt O70344)", "T1 construct": "Single ventricular myocytes were acutely enzymatically isolated from guinea pig heart; endogenous in cells; host or cells: freshly isolated guinea pig ventricular myocytes", "T1 sequence (O70344 1-671)": "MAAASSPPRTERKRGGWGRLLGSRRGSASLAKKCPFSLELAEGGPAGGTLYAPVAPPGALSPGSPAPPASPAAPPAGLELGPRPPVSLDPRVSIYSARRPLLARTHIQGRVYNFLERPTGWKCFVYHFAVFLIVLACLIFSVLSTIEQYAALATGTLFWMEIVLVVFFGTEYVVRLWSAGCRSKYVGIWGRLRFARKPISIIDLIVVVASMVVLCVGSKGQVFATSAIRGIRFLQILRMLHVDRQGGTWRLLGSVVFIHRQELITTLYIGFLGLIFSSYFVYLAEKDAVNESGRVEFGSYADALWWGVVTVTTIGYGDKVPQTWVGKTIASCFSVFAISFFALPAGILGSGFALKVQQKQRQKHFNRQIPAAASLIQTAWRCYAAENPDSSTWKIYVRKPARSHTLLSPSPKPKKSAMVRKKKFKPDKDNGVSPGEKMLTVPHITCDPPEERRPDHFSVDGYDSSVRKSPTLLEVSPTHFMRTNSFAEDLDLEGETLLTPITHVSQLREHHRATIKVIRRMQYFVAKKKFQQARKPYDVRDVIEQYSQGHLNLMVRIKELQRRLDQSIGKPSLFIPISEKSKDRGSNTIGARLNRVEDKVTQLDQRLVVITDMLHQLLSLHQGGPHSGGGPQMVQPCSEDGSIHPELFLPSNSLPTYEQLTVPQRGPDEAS", "experiment": "IKs measurements in isolated ventricular cells (whole-cell patch clamp);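 as to IKs current against voltage, source data Fig. 7d: tail currents measured at the -20 mV return potential after each test voltage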", "format": "cell-based, guinea pig", "set-up": "key to IKs current against time, source data Fig. 7b: IKs current normalized to cell capacitance (current density)", "settings": "for IKs current against voltage, source data Fig. 7d / IKs current against time, source data Fig. 7b: individual cells", "text": "The KCNQ1 and KCNE1 complex forms the cardiac IKs channel, which is important in terminating cardiac action potentials and regulating heart rate[1],[2],[13]. We tested if CP1 modulates the IKs channel in cardiac myocytes. Similar to the results from KCNQ1 + KCNE1 expressed in Xenopus oocytes, in guinea pig ventricular myocyte CP1 enhanced IKs current (Chromanol 293B sensitive current) amplitude (Fig. 7a–c), shifted the G–V relation to more negative voltages (Fig. 7d, e), and slowed the kinetics of deactivation (Fig. 7a).\nFig. 7 Effects of CP1 on IKs and action potentials in cardiomyocytes. a IKs currents in guinea pig ventricular myocytes in the absence and presence of 30 µM CP1 in the whole-cell patch-clamp configuration. Holding potential: −40 mV; testing potentials: −20 to +60 mV with 10-mV increment; returning potential: −20 mV. […] Guinea pig ventricular myocytes were first perfused with 10 µM CP1 and 10 µM chromanol. After APD reached steady state, 10 µM CP1 was constitutively perfused alone. Last, CP1 was washed out for near-full reversal of APD shortening. g Effects of 0.2 µM CP1 on LQT action potentials. To mimic the LQT, 100 µM moxifloxacin was applied 2 h before the treatment of CP1. h Change of action potential duration after application of different [CP1]s (n = 5–7). Tukey–Kramer ANOVA test was used to compare control cells in different CP1 concentration, # is significant at P < 0.05. Unpaired two-tailed Student t tests were used to compare control and moxifloxacin cells at different CP1 concentration: * is significant at P < 0.05.\nThe use of guinea pigs was approved by the Stony Brook University Institutional Animal Care and Use Committee. Single ventricular myocytes were acutely enzymatically isolated from guinea pig heart as previously described. Guinea pigs, weighing 300–500 g, were sacrificed by peritoneal injection of sodium pentobarbitone (1 ml, 390 mg/ml). The isolated cells were stored in KB solution containing (in mM) 83 KCl, 30 K2HPO4, 5 MgSO4, 5 Na pyruvate, 5 β-OH-butyric acid, 20 creatine, 20 taurine, 10 glucose, and 0.5 EGTA, pH 7.2.\nAn Axopatch 1D amplifier (Axon Instruments, Inc.) and the whole-cell patch-clamp technique were used to measure the IKs current. The patch pipette solution contained (in mM) 140 KMeSO3, 20 HEPES, 2 KCl, 5 EGTA, and 5 MgATP, pH 7.4. The external Tyrode contains (in mM) 137.7 NaCl, 2.3 NaOH, 8 KCl, 1 MaCl2, 5 HEPES, 1 CdCl2, and 10 Glucose, pH 7.4. The cells were held at −40 mV and stepped to −20 mV, then to +60 mV with an increment of 10 mV, to measure the membrane current in the absence and the presence of chromanol 293B (10 μM). The chromanol 293B sensitive current was defined as the IKs current normalized to its cell capacitance. These experimental protocols and conditions eliminate most of the other membrane currents, such as IP, INa, ICa, and INa/Ca, except IK, so that we could obtain better experiment resolution.\nElectrophysiology data were processed with IGOR (Wavemetrics, Lake Oswego, OR), Clampfit (Molecular Devices, Sunnyvale, CA), and SigmaPlot (SPSS, Inc., San Jose, CA). Normalized tail currents were plotted versus prepulse voltage and fitted with the Boltzmann function G = G0 + 1/(1 + exp(V − V1/2)/S), where G0 is the minimum conductance, V1/2 is the half-maximal voltage of activation, and S is the slope factor. Dose–response curves in Fig. 3 were fitted with the Hill equation, E = […], where EC50 is the drug concentration producing the half-maximum response and P is the Hill coefficient. In Fig. 7c, e, the EC50 values were obtained by fitting the data to IKs = IMin + (IMax − IMin) ([CP1]/([CP1] + EC50)) and V1/2 = V1/2 min + (V1/2Max − V1/2 min) ([CP1]/([CP1] + EC50)). The deactivation time course was fitted with single-exponential function. All data are expressed as mean ± SEM (n ≥ 3 or otherwise indicated). […]", "note": "Several values for one entry are separate records, joined by “and”; a condition that tells them apart may be missing. Equal values may be shown once."}
{"molecule": "O=S(=O)([O-])Oc1c(-c2sc3c(ccc4cccc(Cl)c43)c2OS(=O)(=O)[O-])[nH]c2ccc(Br)cc12.[Na+].[Na+]", "note": "[CP1, DISODIUM 5-BROMO-2-[9-CHLORO-3-(SULFONATOOXY) NAPHTHO [1,2-B] THIEN-2-YL]-1H-INDOL-3-YL SULFATE]", "values": [{"measurement": "IKs current against voltage, source data Fig. 7d", "setting": "0.2 µM CP1, V 0 mV", "result": "0.1478 and -0.1008 and 0.4867 and 0.5994 and 0.4202 and 0.2428"}, {"measurement": "IKs current against voltage, source data Fig. 7d", "setting": "0.2 µM CP1, V 10 mV", "result": "0.1364 and -8.00E-03 and 0.5359 and 0.687 and 0.4359 and 0.4419"}, {"measurement": "IKs current against voltage, source data Fig. 7d", "setting": "0.2 µM CP1, V 20 mV", "result": "0.5204 and 0.1788 and 0.7643 (2×) and 0.8582 and 0.5444"}, {"measurement": "IKs current against voltage, source data Fig. 7d", "setting": "0.2 µM CP1, V 30 mV", "result": "0.487 and 0.358 and 1.0844 and 1.2573 and 1.0686 and 0.7892"}, {"measurement": "IKs current against voltage, source data Fig. 7d", "setting": "0.2 µM CP1, V 40 mV", "result": "1.432 and 0.5726 and 1.6914 and 1.171 and 1.2536 and 1.1694"}, {"measurement": "IKs current against voltage, source data Fig. 7d", "setting": "0.2 µM CP1, V 50 mV", "result": "1.7002 and 1.1486 and 1.9537 (2×) and 1.6685 and 1.6372"}, {"measurement": "IKs current against voltage, source data Fig. 7d", "setting": "0.2 µM CP1, V 60 mV", "result": "2.1519 and 1.35 and 2.301 (2×) and 1.8192 and 1.8132"}, {"measurement": "IKs current against voltage, source data Fig. 7d", "setting": "0.2 µM CP1, V -10 mV", "result": "0.058 and -0.1764 and 0.4431 and 0.2854 and 0.2431 and 0.2625"}, {"measurement": "IKs current against voltage, source data Fig. 7d", "setting": "0.2 µM CP1, V -20 mV", "result": "-0.0553 and -0.0272 and 0.3362 and 0.2344 and 0.1098 and 0.1296"}, {"measurement": "IKs current against time, source data Fig. 7b", "setting": "0.2 µM CP1, time 0.5 s", "result": "-0.15 and 2.22E-03 and 0.4227 and 0.5059 and 0.5369 and 0.8337"}, {"measurement": "IKs current against time, source data Fig. 7b", "setting": "0.2 µM CP1, time 1.5 s", "result": "1.1736 and 1.2252 and 1.6869 and 1.7762 and 1.8153 and 1.921"}, {"measurement": "IKs current against time, source data Fig. 7b", "setting": "0.2 µM CP1, time 2.5 s", "result": "2.3476 and 2.2614 and 2.5619 and 2.5792 and 2.5781 and 2.9902"}, {"measurement": "IKs current against time, source data Fig. 7b", "setting": "0.2 µM CP1, time 3.5 s", "result": "4.1533 and 3.1046 and 3.3699 and 3.1301 and 3.5796 and 4.2972"}, {"measurement": "IKs current against time, source data Fig. 7b", "setting": "0.2 µM CP1, time 4.5 s", "result": "4.9536 and 3.6388 and 3.9362 and 3.649 and 4.0225 and 4.5344"}, {"measurement": "IKs current against voltage, source data Fig. 7d", "setting": "6 µM CP1, V 0 mV", "result": "0.1828 and 0.4288 and 0.6932 and 0.8299 and 0.4703 and 1.0496"}, {"measurement": "IKs current against voltage, source data Fig. 7d", "setting": "6 µM CP1, V 10 mV", "result": "0.4205 and 0.6933 and 0.9149 and 1.2568 and 0.6403 and 1.5345"}, {"measurement": "IKs current against voltage, source data Fig. 7d", "setting": "6 µM CP1, V 20 mV", "result": "0.8957 and 1.1412 and 1.496 and 1.8852 and 1.1797 and 2.1199"}, {"measurement": "IKs current against voltage, source data Fig. 7d", "setting": "6 µM CP1, V 30 mV", "result": "2.1345 and 1.6765 and 2.1151 and 2.7982 and 1.9302 and 2.5318"}, {"measurement": "IKs current against voltage, source data Fig. 7d", "setting": "6 µM CP1, V 40 mV", "result": "3.0845 and 2.1666 and 2.3348 and 3.4682 and 2.4976 and 3.0115"}, {"measurement": "IKs current against voltage, source data Fig. 7d", "setting": "6 µM CP1, V 50 mV", "result": "3.95 and 2.5666 and 2.4371 and 4.0362 and 3.2962 and 3.3006"}, {"measurement": "IKs current against voltage, source data Fig. 7d", "setting": "6 µM CP1, V 60 mV", "result": "4.0182 and 2.7319 and 3.0293 and 4.3101 and 3.6782 and 3.5497"}, {"measurement": "IKs current against voltage, source data Fig. 7d", "setting": "6 µM CP1, V -10 mV", "result": "0.0746 and 0.3017 and 0.5691 and 0.6051"}, {"measurement": "IKs current against time, source data Fig. 7b", "setting": "6 µM CP1, time 0.5 s", "result": "2.2824 and 1.9027 and 1.3849 and 1.6373 and 2.0899 and 2.4967"}, {"measurement": "IKs current against time, source data Fig. 7b", "setting": "6 µM CP1, time 1.5 s", "result": "5.0013 and 4.6878 and 3.7768 and 4.1793 and 4.2368 and 4.8342"}, {"measurement": "IKs current against time, source data Fig. 7b", "setting": "6 µM CP1, time 2.5 s", "result": "7.088 and 6.1654 and 5.3805 and 5.9272 and 5.6946 and 5.9483"}, {"measurement": "IKs current against time, source data Fig. 7b", "setting": "6 µM CP1, time 3.5 s", "result": "7.9334 and 7.0333 and 6.1833 and 7.248 and 6.5654 and 6.4263"}, {"measurement": "IKs current against time, source data Fig. 7b", "setting": "6 µM CP1, time 4.5 s", "result": "8.5672 and 7.9674 and 7.2346 and 7.483 and 7.0133 and 6.9913"}, {"measurement": "IKs current against time, source data Fig. 7b", "setting": "30 µM CP1, time 0.5 s", "result": "7.2666 and 7.1831 and 9.1229 and 4.6448 and 5.4151 and 6.3301 and 8.2811"}, {"measurement": "IKs current against time, source data Fig. 7b", "setting": "30 µM CP1, time 1.5 s", "result": "8.5502 and 9.0214 and 10.3674 and 6.9314 and 7.3351 and 7.6047 and 9.524"}, {"measurement": "IKs current against time, source data Fig. 7b", "setting": "30 µM CP1, time 2.5 s", "result": "9.051 and 9.8065 and 11.122 and 8.4037 and 8.6405 and 8.1616 and 9.9386"}, {"measurement": "IKs current against time, source data Fig. 7b", "setting": "30 µM CP1, time 3.5 s", "result": "9.3536 and 10.9247 and 11.9708 and 9.4071 and 9.5173 and 8.9351 and 10.1733"}, {"measurement": "IKs current against time, source data Fig. 7b", "setting": "30 µM CP1, time 4.5 s", "result": "10.006 and 11.718 and 12.1269 and 10.5686 and 10.3666 and 9.5544 and 10.5156"}, {"measurement": "EC50", "setting": "at +60 mV, read-out: EC50 of IKs current amplitude", "result": 7.54, "unit": "µM"}]}
